Measured values from patent US9408853B2, “Iridium/rhodium anti-cancer compounds” (University of Warwick, priority 2010, dated 2016).

Columns and labels:
colon COLO 205 = experiment: NCI screen, single cell line; assay type: cell-based
Source text: (§1) Six complexes, [(η^5-C5Me4C6H4C6H5)Ir(bpy)Cl]PF6 (ZL25, bpy=2,2′-bipyridine), [(η^5-C5Me4C6H5)Ir(phen)Cl]PF6 (ZL33, phen=1,10-phenanthroline), [(η^5-C5Me4C6H4C6H5) Ir(pico)Cl] (ZL43, pico=picolinate), [(η^5-C5Me5)Ir(2-phpy)Cl] (ZL47), [(η^5-C5Me4C6H4C6H5)Ir(2-phPY)(D2O)Cl] (ZL49) and [(η^5-C5Me4C6H4C6H5) Ir(phen)Cl]PF6 (ZL54), were selected by Developmental Therapeutics Program of National Cancer Institute (NCI, U.S.A.) for in vitro screening test, in which 5 complexes except ZL43 are selected for further testing. The five complexes were tested on ca. 60 cell lines within nine tumour type subpanels at five concentrations ranging from 0.01 to 100 μM.

melanoma SK-MEL-5 = experiment: NCI screen, single cell line; assay type: cell-based
Source text: as §1

breast MDA-MB-468 = experiment: NCI screen, single cell line; assay type: cell-based
Source text: as §1

[1] = Hydrolysis studies of C,N-chelated complexes and anation by NaCl (1H NMR); assay type: physicochemical; settings: 20% MeOD-d4/80% D2O; equilibrium reached within ~5 min even at 278 K
Source text: Hydrolysis Studies. The hydrolysis of complexes [(η^5-C5Me5)Ir(2-phpy)Cl] (ZL47), [(η^5-C5Me4C6H4C6H5)Ir(2-phpy)Cl] (ZL49), [(η^5-C5Me5) Ir(2-phq)Cl] (ZL68), [(η^5-C5Me5) Ir(tpy)Cl] (ZL69), [(η^5-C5Me5)Ir(2-dfphpy)Cl] (ZL74) and [(η^5-C5Me4C6H5)Ir(2-phpy) Cl] (ZL107) in 20% MeOD-d4/80% D2O (v/v) was monitored by ^1H NMR at different temperatures. The presence of methanol ensured the solubility of the complexes.

[2] = test system: human ovarian A2780 cancer cells; experiment: Cancer cell cytotoxicity, SRB assay; assay type: cell-based; settings: 24 h exposure, 72 h recovery, SRB; read-out: A2780 IC50
Description: Cancer Cell Cytotoxicity. After plating, human ovarian A2780 cancer cells were treated with Ir^III complexes on day 3 at concentrations ranging from 0.5 μM to 100 μM. Solutions of the Ir^III complexes were made up in 0.125% DMSO to assist dissolution. Stock solutions of the IrIII complexes were firstly prepared in DMSO to assist dissolution, and then diluted into 0.9% saline and medium. After plating 5000 A2780 cells per well on day 1, IrIII complexes were added to the cancer cells on day 3 at concentrations ranging from 0.05 μM to 100 μM. Cells were exposed to the complexes for 24 h, washed, supplied with fresh medium, allowed to grow for three doubling times (72 h), and then the protein content measured (proportional to cell survival) using the sulforhodamine B (SRB) assay.^15 […]. The standard errors are based on two independent experiments of three replicates each.

9-ethylguanine (9-EtG) = experiment: Interactions with nucleobases: 9-EtG adduct formation (1H NMR); assay type: binding; settings: 24 h; ca. 1.0 mM, 1 mol equiv 9-EtG, 20% MeOD-d4/80% D2O, 310 K
Description: Interactions with Nucleobases. The reaction of ZL01, ZL03, ZL04, ZL07, ZL25, ZL33, ZL37, ZL38, ZL43 and ZL54 and ZL33A with nucleobases typically involved addition of a solution containing 1-2 mol equiv of nucleobase in D2O, to an equilibrium solution of ZL01, ZL03, ZL04, ZL07, ZL25, ZL33, ZL37, ZL38, ZL43, ZL54 and ZL33A in a solution of 5% MeOD-d4/95% D2O (v/v). ^1H NMR spectra of these solutions were recorded at 310 K after various time intervals.
Since DNA is a potential target site for transition metal anticancer complexes,^18 nucleobase binding reactions of compounds ZL01, ZL03, ZL04, ZL07, ZL25, ZL33, ZL33A, ZL37, ZL38, ZL43 and ZL54 with nucleobase models 9-ethylguanine (9-EtG) and 9-ethyladenine (9-EtA), were investigated. Solutions of ZL01, ZL03, ZL04, ZL07, ZL25, ZL33, ZL37, ZL38, ZL43 and ZL54 (1 mM) (containing an equilibrium mixture of these complexes and their respective aqua adducts) with 1 mol equivalent of 9-EtG or 9-EtA in D2O were prepared, and ^1H NMR spectra were recorded at different time intervals.
Interactions with Nucleobases. Since DNA is a potential target site for transition metal anticancer complexes,^23 the binding of 9-ethylguanine (9-EtG) to complexes ZL47, ZL49, ZL69, ZL74 and ZL107 was studied.

[3] = test system: ca. 60 cell lines within nine tumour type subpanels; assay type: cell-based
Source text: as §1

MCF-7 cancer cell line = settings: cited from earlier work
[4] = test system: human ovarian cancer cell line A2780cisR (cisplatin-resistant); settings: cited from earlier work
[5] = test system: human ovarian cancer cell line A2780; settings: cited from earlier work
HT-29 cancer cell line = settings: cited from earlier work
[6] = test system: A2780 human ovarian cancer cells; experiment: Cytotoxicity testing of rhodium complexes; assay type: cell-based
Description: Cytotoxicity testing in A2780 human ovarian cancer cells was performed by Dr Ana Maria Pizarro Arranz at the University of Warwick.

Row | hydrolysis (in words) [1] | Compound | IC50 [2] | guanine adducts formed (9-ethylguanine (9-EtG)) | in vitro cytotoxic activity towards MCF-7 (in words) (MCF-7 cancer cell line) | also measured
1 | rapid hydrolysis | Cc1c(C)c(C)[c-](C)c1C.[Cl-].[Ir+3].[c-]1ccccc1-c1ccc2ccccc2n1 [ZL68, [(η^5-C5Me5)Ir(2-phq)Cl]] | 2550 ± 30 nM | – | – | –
2 | rapid hydrolysis | Cc1c(C)c(C)[c-](C)c1C.Cc1c[c-]c(-c2ccccn2)cc1.[Cl-].[Ir+3] [ZL69, [(η^5-C5Me5)Ir(tpy)Cl]] | 3280 ± 140 nM | 100% | – | –
3 | rapid hydrolysis | Cc1c(C)c(C)[c-](C)c1C.Fc1c[c-]c(-c2ccccn2)c(F)c1.[Cl-].[Ir+3] [ZL74, [(η^5-C5Me5)Ir(2-dfphpy)Cl]] | 6530 ± 500 nM | 100% | – | –
4 | – | Cc1c(C)c(C)[c-](C)c1C.NCCN.O=S(=O)([O-])C(F)(F)F.[Cl-].[Ir+3] [[(η^5-C5Me5) Ir(en)Cl](CF3SO3)] | – | – | inactive | –
5 | – | Cc1c(C)c(C)[c-](C)c1C.[Cl-].[Ir+3].c1ccc(-c2nccs2)nc1 [[(η^5-C5Me5)Ir (pyTz)Cl]^+] | – | – | – | activity towards A2780cisR (in words) [4]: inactive; activity towards A2780 (in words) [5]: inactive
6 | – | CN(C)C(=S)N(C)C.Cc1c(C)c(C)[c-](C)c1C.O=S(=O)([O-])C(F)(F)F.O=S(=O)([O-])C(F)(F)F.[Ir+3].c1ccc2cc3nc4c5cccnc5c5ncccc5c4nc3cc2c1 [[(η^5-C5Me5)Ir((NMe2)2CS)(dppn)](CF3SO3)2] | – | – | possess in vitro cytotoxic activity | in vitro cytotoxic activity towards HT-29 (in words) (HT-29 cancer cell line): possess in vitro cytotoxic activity
7 | – | Cc1c(C)c(C)[c-](C)c1C.O=S(=O)([O-])C(F)(F)F.[Cl-].[Ir+3].c1cnc2c(c1)ccc1cccnc12 [[(η^5-C5Me5)Ir(phen)Cl](CF3SO3)] | – | – | inactive | –
8 | – | Cc1c(C)c(C)[c-](C)c1C.O=S(=O)([O-])C(F)(F)F.[Cl-].[Ir+3].c1ccc2nc3c4cccnc4c4ncccc4c3nc2c1 [[(η^5-C5Me5)IrCl(dppz)](CF3SO3)] | – | – | possess in vitro cytotoxic activity | in vitro cytotoxic activity towards HT-29 (in words) (HT-29 cancer cell line): possess in vitro cytotoxic activity
9 | – | [(Cp*)Rh(2-phenylbipyridyl)Cl]Cl [JS36] | – | – | – | relative activity against A2780 (in words) [6]: most active
10 | – | [(Cp^xPh)Rh(2-Phenylbipyridyl)Cl]Cl [JS29] | – | – | – | relative activity against A2780 (in words) [6]: most active
11 | – | [(Cp^xdiPh)Rh(2-phenylbipyridyl)Cl]Cl [JS39] | – | – | – | relative activity against A2780 (in words) [6]: most active

Row | Compound | hydrolysis (in words) [1] | IC50 [2] | guanine adducts formed (9-ethylguanine (9-EtG)) | in vitro cytotoxic activity towards MCF-7 (in words) (MCF-7 cancer cell line) | also measured
12 | Cc1c(C)c(C)[c-](-c2ccc(-c3ccccc3)cc2)c1C.[Cl-].[Ir+3].[c-]1ccccc1-c1ccccn1 [ZL49, [(η^5-C5Me4C6H4C6H5)Ir(2-phpy)Cl]] | rapid hydrolysis | 700 nM | 100% | – | GI50 (colon COLO 205): < 200 nM; GI50 (melanoma SK-MEL-5): < 200 nM; GI50 (breast MDA-MB-468): < 200 nM; CC50 [3]: 7080 ± 1050 nM; Mean graph midpoint (MID) TGI ([3]; ca. 60 cell lines, 0.01 to 100 μM): 2190 ± 150 nM; GI50 ([3]; ca. 60 cell lines, 0.01 to 100 μM, read-out: Mean graph midpoint (MID) GI50): 710 ± 10 nM; selectivity among tumour type subpanels (in words) ([3]; mean graphs): selective for leukemia, colon cancer, and melanoma
13 | Cc1c(C)c(-c2ccccc2)[c-](C)c1C.[Cl-].[Ir+3].[c-]1ccccc1-c1ccccn1 (centres unmarked) [ZL107, [(η^5-C5Me4C6H5)(2-phpy)Cl]] | rapid hydrolysis | 2140 ± 500 nM | 100% | – | –
